Source: patent publication US9695155B2, “Herbicidal substituted pyrimidinyloxy benzene compounds” (E. I. DU PONT DE NEMOURS AND COMPANY, priority 2013, dated 2017)

What was measured:
bermudagrass = test: Test F preemergence; type: in vivo, Cynodon dactylon; conditions: 21 days, scale 0 to 100
From the text: Seeds of plant species selected from bermudagrass (Cynodon dactylon), surinam grass (Brachiaria decumbens), large (Lg) crabgrass (Digitaria sanguinalis), crabgrass, naked (naked crabgrass, Digitaria nuda), foxtail, green (green foxtail, Setaria viridis), johnsongrass (Sorghum halepense), kochia (Kochia scoparia), morningglory (pitted morningglory, Ipomoea lacunosa), nutsedge, purple (purple nutsedge, Cyperus rotundus), ragweed (common ragweed, Ambrosia elatior), mustard, black (black mustard, Brassica nigra), guineagrass (Panicum maximum), dallisgrass (Paspalum dilatatum), barnyardgrass (Echinochloa crus-galli), sandbur (southern sandbur, Cenchrus echinatus), sowthistle (common sowthistle, Sonchus oleraceous), Italian ryegrass (Lolium multiflorum), signalgrass (broadleaf signalgrass, Brachiaria platyphylla), dayflower (Virginia (VA) dayflower, Commelina virginica), bluegrass (annual bluegrass, Poa annua), quackgrass (Elytrigia repens), mallow (common mallow, Malva sylvestris), buckwheat, wild (wild buckwheat, Polygonum convolvulus), leafy spurge (Euphorbia esula), chickweed (common chickweed, Stellaria media), wild poinsettia (Euphorbia heterophylla), and pigweed (Amaranthus retroflexus) were planted into a blend of loam soil and sand and treated preemergence with test chemicals formulated in a non-phytotoxic solvent mixture which included a surfactant.
Treated plants and controls were maintained in a greenhouse for 21 days, after which time all species were compared to controls and visually evaluated. Plant response ratings, summarized in Table F, are based on a scale of 0 to 100 where 0 is no effect and 100 is complete control. A dash (-) response means no test result.

wild buckwheat = test: Test D preemergence; type: in vivo, Polygonum convolvulus
From the text: (§1) Seeds of plant species selected from bluegrass (annual bluegrass, Poa annua), blackgrass (Alopecurus myosuroides), canarygrass (littleseed canarygrass, Phalaris minor), chickweed (common chickweed, Stellaria media), galium (catchweed bedstraw, Galium aparine), bromegrass, downy (downy bromegrass, Bromus tectorum), field poppy (Papaver rhoeas), field violet (Viola arvensis), green foxtail (Setaria viridis), deadnettle (henbit deadnettle, Lamium amplexicaule), Italian ryegrass (Lolium multiflorum), kochia (Kochia scoparia), lambsquarters (Chenopodium album), oilseed rape (Brassica napus), pigweed (Amaranthus retroflexus), chamomile (scentless chamomile, Matricaria inodora), Russian thistle (Salsola kali), speedwell (bird's-eye speedwell, Veronica persica), spring barley (Hordeum vulgare), spring wheat (Triticum aestivum), wild buckwheat (Polygonum convolvulus), wild mustard (Sinapis arvensis), wild oat (Avena fatua), wild radish (Raphanus raphanistrum), windgrass (Apera spica-venti), winter barley (Hordeum vulgare), and winter wheat (Triticum aestivum) were planted into a silt loam soil and treated preemergence with test chemicals formulated in a non-phytotoxic solvent mixture which included a surfactant.
(§2) At the same time, these species were planted in pots containing Redi-Earth® planting medium (Scotts Company, 14111 Scottslawn Road, Marysville, Ohio 43041) comprising spaghnum peat moss, vermiculite, wetting agent and starter nutrients and treated with postemergence applications of the test chemicals formulated in the same manner. Plants ranged in height from 2 to 18 cm (1- to 4-leaf stage). Treated plants and controls were maintained in a controlled growth environment for 7 to 21 days after which time all species were compared to controls and visually evaluated. Plant response ratings, summarized in Table D, are based on a scale of 0 to 100 where 0 is no effect and 100 is complete control. A dash (-) response means no test result.

bromegrass, downy = test: Test D postemergence; type: in vivo, Bromus tectorum
From the text: as §1, §2

field poppy = test: Test D postemergence; type: in vivo, Papaver rhoeas
From the text: as §1, §2

spring wheat = test: Test D postemergence; type: in vivo, Triticum aestivum
From the text: as §1, §2

winter wheat = test: Test D postemergence; type: in vivo, Triticum aestivum
From the text: as §1, §2

wild oat = test: Test D postemergence; type: in vivo, Avena fatua
From the text: as §1, §2

[1] = 31 g ai/ha, scale 0 to 100 (0 no effect, 100 complete control)
[2] = 62 g ai/ha, scale 0 to 100 (0 no effect, 100 complete control)
[3] = 125 g ai/ha, scale 0 to 100 (0 no effect, 100 complete control)

## N#Cc1cccc(Oc2ncc(Cl)cn2)c1-n1cc(OC(F)F)cn1 [Compound 97]
bermudagrass; 16 g ai/ha
  Plant response rating, Bermudagrass: 80
bermudagrass; 31 g ai/ha
  Plant response rating, Bermudagrass: 95
bermudagrass; 62 g ai/ha
  Plant response rating, Bermudagrass: 100
bermudagrass; 125 g ai/ha
  Plant response rating, Bermudagrass: 100
bermudagrass; 250 g ai/ha
  Plant response rating, Bermudagrass: 100

## FCc1cccc(Oc2ncc(Cl)cn2)c1-n1cc(I)cn1 [Compound 245]
Wild buckwheat; 16 g ai/ha, scale 0 (no effect) to 100 (complete control)
  Plant response rating, Buckwheat, Wild: 25
Wild buckwheat; 31 g ai/ha, scale 0-100
  Plant response rating, Buckwheat, Wild: 0
Wild buckwheat; 62 g ai/ha, scale 0-100
  Plant response rating, Buckwheat, Wild: 25
Wild buckwheat; 125 g ai/ha, scale 0-100
  Plant response rating, Buckwheat, Wild: 35
bromegrass, downy; Postemergence, 62 g ai/ha, scale 0 to 100 (0 no effect, 100 complete control)
  Plant response rating, Bromegrass, Downy: 25
bromegrass, downy; Postemergence, 31 g ai/ha, scale 0 to 100 (0 no effect, 100 complete control)
  Plant response rating, Bromegrass, Downy: 20
bromegrass, downy; Postemergence, 125 g ai/ha, scale 0 to 100 (0 no effect, 100 complete control)
  Plant response rating, Bromegrass, Downy: 30
bromegrass, downy; postemergence, 16 g ai/ha, scale 0 to 100, 0 no effect, 100 complete control
  Plant response rating, Bromegrass, Downy: 20
Field poppy; 16 g ai/ha, scale 0-100
  Plant response rating, Field Poppy: 90
Field poppy; [1]
  Plant response rating, Field Poppy: 95
Field poppy; [2]
  Plant response rating, Field Poppy: 80
Field poppy; [3]
  Plant response rating, Field Poppy: 100
Spring wheat; 16 g ai/ha, scale 0-100
  Plant response rating, Wheat, Spring: 10
Spring wheat; [1]
  Plant response rating, Wheat, Spring: 10
Spring wheat; [2]
  Plant response rating, Wheat, Spring: 10
Spring wheat; [3]
  Plant response rating, Wheat, Spring: 20
Winter wheat; 16 g ai/ha, scale 0-100
  Plant response rating, Wheat, Winter: 5
Winter wheat; [1]
  Plant response rating, Wheat, Winter: 10
Winter wheat; [2]
  Plant response rating, Wheat, Winter: 10
Winter wheat; [3]
  Plant response rating, Wheat, Winter: 10
Wild oat; 16 g ai/ha, scale 0-100
  Plant response rating, Oat, Wild: 0
Wild oat; [1]
  Plant response rating, Oat, Wild: 0
Wild oat; [2]
  Plant response rating, Oat, Wild: 10
Wild oat; [3]
  Plant response rating, Oat, Wild: 10

## Fc1cccc(Oc2ncc(Cl)cn2)c1-n1cc(C(F)F)nn1 [Compound 141, 5-chloro-2-[2-[4-(difluoromethyl)-1H-1,2,3-triazol-1-yl]-3-fluorophenoxy]pyrimidine]
Wild buckwheat; Fallopia convolvulus, pre-emergence, 16 g ai/ha, scale 0 (no effect) to 100 (complete control), read-out: Plant response rating, Buckwheat, Wild
  pest or weed control at 16 g/ha: 100%
Wild buckwheat; Fallopia convolvulus, pre-emergence, 31 g ai/ha, scale 0-100, read-out: Plant response rating, Buckwheat, Wild
  pest or weed control at 31 g/ha: 100%
Wild buckwheat; Fallopia convolvulus, pre-emergence, 62 g ai/ha, scale 0-100, read-out: Plant response rating, Buckwheat, Wild
  pest or weed control at 62 g/ha: 100%
Wild buckwheat; Fallopia convolvulus, pre-emergence, 125 g ai/ha, scale 0-100, read-out: Plant response rating, Buckwheat, Wild
  pest or weed control at 125 g/ha: 100%
bromegrass, downy; Bromus tectorum, post-emergence, Postemergence, 16 g ai/ha, scale 0 to 100 (0 no effect, 100 complete control), read-out: Plant response rating, Bromegrass, Downy
  pest or weed control at 16 g/ha: 15%
bromegrass, downy; Bromus tectorum, post-emergence, Postemergence, 31 g ai/ha, scale 0 to 100 (0 no effect, 100 complete control), read-out: Plant response rating, Bromegrass, Downy
  pest or weed control at 31 g/ha: 20%
bromegrass, downy; Bromus tectorum, post-emergence, Postemergence, 62 g ai/ha, scale 0 to 100 (0 no effect, 100 complete control), read-out: Plant response rating, Bromegrass, Downy
  pest or weed control at 62 g/ha: 30%
bromegrass, downy; Bromus tectorum, post-emergence, Postemergence, 125 g ai/ha, scale 0 to 100 (0 no effect, 100 complete control), read-out: Plant response rating, Bromegrass, Downy
  pest or weed control at 125 g/ha: 45%
Field poppy; Papaver rhoeas, post-emergence, 16 g ai/ha, scale 0-100, read-out: Plant response rating, Field Poppy
  pest or weed control at 16 g/ha: 40%
Field poppy; Papaver rhoeas, post-emergence, 31 g ai/ha, scale 0 to 100 (0 no effect, 100 complete control), read-out: Plant response rating, Field Poppy
  pest or weed control at 31 g/ha: 95%
Field poppy; Papaver rhoeas, post-emergence, 62 g ai/ha, scale 0 to 100 (0 no effect, 100 complete control), read-out: Plant response rating, Field Poppy
  pest or weed control at 62 g/ha: 90%
Field poppy; Papaver rhoeas, post-emergence, 125 g ai/ha, scale 0 to 100 (0 no effect, 100 complete control), read-out: Plant response rating, Field Poppy
  pest or weed control at 125 g/ha: 85%
Spring wheat; Triticum aestivum, post-emergence, 16 g ai/ha, scale 0-100, read-out: Plant response rating, Wheat, Spring
  plant injury at 16 g/ha: 15%
Spring wheat; Triticum aestivum, post-emergence, 31 g ai/ha, scale 0 to 100 (0 no effect, 100 complete control), read-out: Plant response rating, Wheat, Spring
  plant injury at 31 g/ha: 20%
Spring wheat; Triticum aestivum, post-emergence, 62 g ai/ha, scale 0 to 100 (0 no effect, 100 complete control), read-out: Plant response rating, Wheat, Spring
  plant injury at 62 g/ha: 25%
Spring wheat; Triticum aestivum, post-emergence, 125 g ai/ha, scale 0 to 100 (0 no effect, 100 complete control), read-out: Plant response rating, Wheat, Spring
  plant injury at 125 g/ha: 35%
Winter wheat; Triticum aestivum, post-emergence, 16 g ai/ha, scale 0-100, read-out: Plant response rating, Wheat, Winter
  plant injury at 16 g/ha: 5%
Winter wheat; Triticum aestivum, post-emergence, 31 g ai/ha, scale 0 to 100 (0 no effect, 100 complete control), read-out: Plant response rating, Wheat, Winter
  plant injury at 31 g/ha: 5%
Winter wheat; Triticum aestivum, post-emergence, 62 g ai/ha, scale 0 to 100 (0 no effect, 100 complete control), read-out: Plant response rating, Wheat, Winter
  plant injury at 62 g/ha: 20%
Winter wheat; Triticum aestivum, post-emergence, 125 g ai/ha, scale 0 to 100 (0 no effect, 100 complete control), read-out: Plant response rating, Wheat, Winter
  plant injury at 125 g/ha: 50%
Wild oat; Avena fatua, post-emergence, 16 g ai/ha, scale 0-100, read-out: Plant response rating, Oat, Wild
  pest or weed control at 16 g/ha: 5%
Wild oat; Avena fatua, post-emergence, 31 g ai/ha, scale 0 to 100 (0 no effect, 100 complete control), read-out: Plant response rating, Oat, Wild
  pest or weed control at 31 g/ha: 10%
Wild oat; Avena fatua, post-emergence, 62 g ai/ha, scale 0 to 100 (0 no effect, 100 complete control), read-out: Plant response rating, Oat, Wild
  pest or weed control at 62 g/ha: 15%
Wild oat; Avena fatua, post-emergence, 125 g ai/ha, scale 0 to 100 (0 no effect, 100 complete control), read-out: Plant response rating, Oat, Wild
  pest or weed control at 125 g/ha: 30%
